The values that follow are results of earlier work, collected in PubChem BioAssay AID1259409 (Chemical Carcinogenesis Research Information System (CCRIS), 2018).

This data set deals with rodent chemically induced tumor inhibition, incidence and multiplicity. The data set is described as follows: CCRIS tumor inhibitor studies. The following applies: Dose [Inhibitor]: 0, Route [Inhibitor]: ORAL, Species: RAT.

Turning to `CC1=C(CC(=O)O)c2cc(F)ccc2/C1=C\c1ccc(S(C)(=O)=O)cc1`, the “tumour outcome (control, treated, inhibition, significance)” value is, setting by setting: (Carcinogen: 1-METHYL-1-NITROSOUREA, 684-93-5, 0.03% IN A PURIFIED HIGH-FAT (24.6%) DIET FOR 37 WK BEGINNING 1 WK POST CARCINOGEN DOSE (STUDY DURATION: 38 WK), Strain/Sex: SPRAGUE-DAWLEY/FEMALE, Target Tissue: Type of Lesion: MAMMARY GLAND: CARCINOMA, Dose [Carcinogen]: 12.5 MG/KG BW ONCE, Promoter: NONE USED) 30%, 12%, 60%, p<0.05; (Carcinogen: 1-METHYL-1-NITROSOUREA, 684-93-5, 0.03% IN DIET FOR DURATION OF STUDY BEGINNING 7 D POST CARCINOGEN DOSE (STUDY DURATION: 24 WK), Strain/Sex: SPRAGUE-DAWLEY/FEMALE, Target Tissue: Type of Lesion: MAMMARY GLAND: ADENOCARCINOMA, Dose [Carcinogen]: 50 MG/KG ONCE, Promoter: NONE USED) 93%, 93%, 0%, not significant; (Carcinogen: 1-METHYL-1-NITROSOUREA, 684-93-5, 0.06% IN A PURIFIED HIGH-FAT (24.6%) DIET FOR 37 WK BEGINNING 1 WK POST CARCINOGEN DOSE (STUDY DURATION: 38 WK), Strain/Sex: SPRAGUE-DAWLEY/FEMALE, Target Tissue: Type of Lesion: MAMMARY GLAND: CARCINOMA, Dose [Carcinogen]: 12.5 MG/KG BW ONCE, Promoter: NONE USED) 30%, 16%, 47%, p<0.05; (Carcinogen: 1-METHYL-1-NITROSOUREA, 684-93-5, 0.06% IN DIET FOR DURATION OF STUDY BEGINNING 7 D POST CARCINOGEN DOSE (STUDY DURATION: 24 WK), Strain/Sex: SPRAGUE-DAWLEY/FEMALE, Target Tissue: Type of Lesion: MAMMARY GLAND: ADENOCARCINOMA, Dose [Carcinogen]: 50 MG/KG ONCE, Promoter: NONE USED) 93%, 72%, 23%, p<0.05; (Carcinogen: AZOXYMETHANE, 25843-45-2, 500 PPM IN DIET FOR 29 WK BEGINNING 1 WK POST CARCINOGEN TREATMENT (STUDY DURATION: 32 WK), Strain/Sex: F344/MALE, Target Tissue: Type of Lesion: COLON: ADENOMA, Dose [Carcinogen]: 15 MG/KG BW 1/WK FOR 2 WK, Promoter: NONE USED) 77%, 60%, 22%, not significant; (Carcinogen: AZOXYMETHANE, 25843-45-2, 500 PPM IN DIET FOR 29 WK BEGINNING 1 WK POST CARCINOGEN TREATMENT (STUDY DURATION: 32 WK), Strain/Sex: F344/MALE, Target Tissue: Type of Lesion: COLON: CARCINOMA, Dose [Carcinogen]: 15 MG/KG BW 1/WK FOR 2 WK, Promoter: NONE USED) 53%, 63%, -19%, not significant. The “tumour outcome (control, treated, inhibition, significance)” value by setting is: (Carcinogen: AZOXYMETHANE, 25843-45-2, 1000 PPM IN DIET FOR 29 WK BEGINNING 1 WK POST CARCINOGEN TREATMENT (STUDY DURATION: 32 WK), Strain/Sex: F344/MALE, Target Tissue: Type of Lesion: COLON: ADENOMA, Dose [Carcinogen]: 15 MG/KG BW 1/WK FOR 2 WK, Promoter: NONE USED) 77%, 40%, 48%, p<0.05; (Carcinogen: AZOXYMETHANE, 25843-45-2, 1000 PPM IN DIET FOR 29 WK BEGINNING 1 WK POST CARCINOGEN TREATMENT (STUDY DURATION: 32 WK), Strain/Sex: F344/MALE, Target Tissue: Type of Lesion: COLON: CARCINOMA, Dose [Carcinogen]: 15 MG/KG BW 1/WK FOR 2 WK, Promoter: NONE USED) 53%, 37%, 30%, not significant; (Carcinogen: AZOXYMETHANE, 25843-45-2, 2000 PPM IN DIET FOR 29 WK BEGINNING 1 WK POST CARCINOGEN TREATMENT (STUDY DURATION: 32 WK), Strain/Sex: F344/MALE, Target Tissue: Type of Lesion: COLON: ADENOMA, Dose [Carcinogen]: 15 MG/KG BW 1/WK FOR 2 WK, Promoter: NONE USED) 77%, 20%, 74%, p<0.05; (Carcinogen: AZOXYMETHANE, 25843-45-2, 2000 PPM IN DIET FOR 29 WK BEGINNING 1 WK POST CARCINOGEN TREATMENT (STUDY DURATION: 32 WK), Strain/Sex: F344/MALE, Target Tissue: Type of Lesion: COLON: CARCINOMA, Dose [Carcinogen]: 15 MG/KG BW 1/WK FOR 2 WK, Promoter: NONE USED) 53%, 10%, 81%, p<0.05; (Carcinogen: N-BUTYL-N-(N-HYDROXYBUTYL)NITROSAMINE [3817-11-6], 600 MG/KG IN DIET FOR 6 MONTHS BEGINNING 1 WK PRIOR TO FIRST CARCINOGEN DOSE (STUDY DURATION: 6 MONTHS), Strain/Sex: F344/FEMALE, Target Tissue: Type of Lesion: URINARY BLADDER: CARCINOMA, Dose [Carcinogen]: 150 MG IN 20% ETHANOL 2X/WK FOR 8 WK (STUDY DURATION: 6 MONTHS), Promoter: NONE) 27%, 30%, -11%, not significant; (Carcinogen: N-BUTYL-N-(N-HYDROXYBUTYL)NITROSAMINE [3817-11-6], 600 MG/KG IN DIET FOR 6 MONTHS BEGINNING 1 WK PRIOR TO FIRST CARCINOGEN DOSE (STUDY DURATION: 6 MONTHS), Strain/Sex: F344/FEMALE, Target Tissue: Type of Lesion: URINARY BLADDER: PAPILLOMA, Dose [Carcinogen]: 150 MG IN 20% ETHANOL 2X/WK FOR 8 WK (STUDY DURATION: 6 MONTHS), Promoter: NONE) 60%, 60%, 0%, not significant. The “tumour outcome (control, treated, inhibition, significance)” value (Carcinogen: N-BUTYL-N-(N-HYDROXYBUTYL)NITROSAMINE [3817-11-6], 800 MG/KG IN DIET FOR 6 MONTHS BEGINNING 1 WK PRIOR TO FIRST CARCINOGEN DOSE (STUDY DURATION: 6 MONTHS), Strain/Sex: F344/FEMALE, Target Tissue: Type of Lesion: URINARY BLADDER: CARCINOMA, Dose [Carcinogen]: 150 MG IN 20% ETHANOL 2X/WK FOR 8 WK (STUDY DURATION: 6 MONTHS), Promoter: NONE) was 27%, 23%, 15%, not significant; the “tumour outcome (control, treated, inhibition, significance)” value (Carcinogen: N-BUTYL-N-(N-HYDROXYBUTYL)NITROSAMINE [3817-11-6], 800 MG/KG IN DIET FOR 6 MONTHS BEGINNING 1 WK PRIOR TO FIRST CARCINOGEN DOSE (STUDY DURATION: 6 MONTHS), Strain/Sex: F344/FEMALE, Target Tissue: Type of Lesion: URINARY BLADDER: PAPILLOMA, Dose [Carcinogen]: 150 MG IN 20% ETHANOL 2X/WK FOR 8 WK (STUDY DURATION: 6 MONTHS), Promoter: NONE) was 60%, 43%, 28%, not significant; the “tumour outcome (control, treated, inhibition, significance)” value (Carcinogen: N-BUTYL-N-(N-HYDROXYBUTYL)NITROSAMINE [3817-11-6], 1000 MG/KG IN DIET FOR 6 MONTHS BEGINNING 1 WK PRIOR TO FIRST CARCINOGEN DOSE (STUDY DURATION: 6 MONTHS), Strain/Sex: F344/FEMALE, Target Tissue: Type of Lesion: URINARY BLADDER: CARCINOMA, Dose [Carcinogen]: 150 MG IN 20% ETHANOL 2X/WK FOR 8 WK (STUDY DURATION: 6 MONTHS), Promoter: NONE) is given as 27%, 14%, 48%, not significant; the “tumour outcome (control, treated, inhibition, significance)” value (Carcinogen: N-BUTYL-N-(N-HYDROXYBUTYL)NITROSAMINE [3817-11-6], 1000 MG/KG IN DIET FOR 6 MONTHS BEGINNING 1 WK PRIOR TO FIRST CARCINOGEN DOSE (STUDY DURATION: 6 MONTHS), Strain/Sex: F344/FEMALE, Target Tissue: Type of Lesion: URINARY BLADDER: PAPILLOMA, Dose [Carcinogen]: 150 MG IN 20% ETHANOL 2X/WK FOR 8 WK (STUDY DURATION: 6 MONTHS), Promoter: NONE) was 60%, 38%, 37%, not significant; the “tumour outcome (control, treated, inhibition, significance)” value (Carcinogen: N-BUTYL-N-(N-HYDROXYBUTYL)NITROSAMINE [3817-11-6], 1200 MG/KG IN DIET FOR 6 MONTHS BEGINNING 1 WK PRIOR TO FIRST CARCINOGEN DOSE (STUDY DURATION: 6 MONTHS), Strain/Sex: F344/FEMALE, Target Tissue: Type of Lesion: URINARY BLADDER: CARCINOMA, Dose [Carcinogen]: 150 MG IN 20% ETHANOL 2X/WK FOR 8 WK (STUDY DURATION: 6 MONTHS), Promoter: NONE) is 27%, 7%, 74%, not significant; the “tumour outcome (control, treated, inhibition, significance)” value (Carcinogen: N-BUTYL-N-(N-HYDROXYBUTYL)NITROSAMINE [3817-11-6], 1200 MG/KG IN DIET FOR 6 MONTHS BEGINNING 1 WK PRIOR TO FIRST CARCINOGEN DOSE (STUDY DURATION: 6 MONTHS), Strain/Sex: F344/FEMALE, Target Tissue: Type of Lesion: URINARY BLADDER: PAPILLOMA, Dose [Carcinogen]: 150 MG IN 20% ETHANOL 2X/WK FOR 8 WK (STUDY DURATION: 6 MONTHS), Promoter: NONE) was 60%, 27%, 55%, not significant.
